Measurements as given in publication PMC10819979, “Antitumor Mechanism and Therapeutic Potential of Cordycepin Derivatives” (Molecules, 2024).

How the values were obtained:
MCF7 cells [1] = assay: MTT cell proliferation assay, MCF7; type: cell-based; conditions: Homo sapiens, 48 h incubation, x̄ ± s, n = 6
Protocol: (§1) MCF7, HepG2, SGC-7901 and MCF-10A were purchased from the National Infrastructure of Cell Line Resources in the Chinese Academy of Sciences (Shanghai Institute of Biochemistry and Cell Biology, Shanghai, China). Cells were maintained using RPMI-1640 medium with 10% fetal bovine serum. The cells were maintained at 37 °C in a 5% CO2-containing incubator for all treatments. Logarithmic growth phase cells were used in all experiments.
(§2) The effect of compounds on the proliferation of cancer cells was determined with an MTT assay. Cells monolayer in exponential growth were seeded in 96-well plates at 5 × 10^3 cells/well. After cultured at 37 °C for 24 h, the culture medium was removed, then compounds (3a–4c) (1.25, 2.5, 5, 10, 20, 40, 80 μM) and HCPT (4, 8, 16 μM) were added. After 48 h incubation, 100 µL of MTT was added to each well and then cultured for 4 h in a 37 °C incubator. After that, the medium was aspirated, 150 µL of DMSO was then added to each well, and the 96-well plates were placed on an orbital shaker for 12 min until the formazan dissolved completely. The absorbance was measured at a test wavelength of 490 nm with a microplate reader, the optical density (OD) values were tested and the inhibitory rate and half inhibitory concentration (IC50) were calculated for each administration group.

HepG2 cells = assay: MTT cell proliferation assay, HepG2; type: cell-based; conditions: Homo sapiens, 48 h incubation, x̄ ± s, n = 6
Protocol: as §1, §2

SGC-7901 cells = assay: MTT cell proliferation assay, SGC-7901; type: cell-based; conditions: Homo sapiens, 48 h incubation, x̄ ± s, n = 6
Protocol: as §1, §2

MCF-10A cells = assay: In vitro cytotoxicity against normal breast cell line; type: cell-based
Protocol: as §1, §2

MCF7 cells [2] = assay: Apoptosis of MCF7 cells by flow cytometry; type: cell-based; conditions: MCF7, 56 μM, 48 h, n = 3
Protocol: Cells were cultured in the medium for 24 h and treated with compounds in different concentrations and HCPT incubated for 48 h. The cells were centrifuged at 1000 rpm for 10 min and washed with PBS. Subsequently, the cells were […] stained with annexin V-FITC (10 μL) and propidium iodide (PI; 10 μL). The proportion of apoptotic cells was then measured by flow cytometry.

MCF7 cells [3] = assay: Cell cycle detection by flow cytometry (PI); type: cell-based; conditions: 14, 28 and 56 μM, dose-dependent
Protocol: After the treatments, the harvested cells were incubated at 70% in ice-ethanol overnight. Subsequently, they were washed twice using PBS and incubated with propidium iodide (PI) and RNase A. Finally, the proportions of cells in different cell cycle phases were determined by flow cytometry.

MCF7 cells [4] = assay: Mitochondrial membrane potential assay (rhodamine 123, flow cytometry); type: cell-based; conditions: MCF7, dose–effect relationship
Protocol: MCF7 cells were cultured in 6-well plates, after treatment with compounds in different concentrations and positive control group (HCPT), cells were harvested, washed with PBS, and then stained with rhodamine 123 (100 µg) for 30 min at 37 °C. The cells were collected by pipetting, washed twice with PBS and analyzed by flow cytometry (BD Biosciences, San Jose, CA, USA).

Bcl-2 = assay: Western Blot, Bcl-2 expression in MCF7 cells; type: cell-based; conditions: MCF7, 14, 28, 56 μM, 48 h
Protocol: (§3) Cells were cultured in the medium for 24 h and treated with compounds in different concentrations and HCPT for 48 h. After lysis buffer (RIPA: PMSF = 100:1) was used to lyse cells. The lysate was further sonicated and centrifuged at 12,000 rpm for 15 min, then the supernatant obtained was collected and the denatured protein mixture was subjected to SDS gel electrophoresis and transferred to nitrocellulose membranes, and blocked with containing 5% nonfat milk. Then, the membranes were incubated with the primary antibodies (1:1000, overnight 4 °C) and secondary antibodies (1:5000, 1 h). Then, ECL Solution was used to detect the antigen–antibody complexes. The data were analyzed by NIH Image J 1.53a software.

Caspase-9 = assay: Western Blot, Caspase-9 expression in MCF7 cells; type: cell-based; conditions: MCF7, 14, 28, 56 μM, 48 h
Protocol: as §3

Caspase-3 = assay: Western Blot, Caspase-3 expression in MCF7 cells; type: cell-based; conditions: MCF7, 14, 28, 56 μM, 48 h
Protocol: as §3

Bax = assay: Western Blot, Bax expression in MCF7 cells; type: cell-based; conditions: MCF7, 14, 28, 56 μM, 48 h
Protocol: as §3

p53 = assay: Western Blot, p53 expression in MCF7 cells; type: cell-based; conditions: MCF7, 14, 28, 56 μM, 48 h
Protocol: as §3

MCF7 = tested on: MCF7; design: method as in PMID 32163051, PMID 22821173; conditions: breast cancer cell viability; cited from earlier work
MDA-MB-453 cells = tested on: MDA-MB-453 cells; design: method as in PMID 32163051, PMID 22821173; conditions: breast cancer cell viability; cited from earlier work

| SMILES | IC50 (MCF7 cells [1]) [µM] | IC50 (HepG2 cells) [µM] | IC50 (SGC-7901 cells) [µM] | other results |
| --- | --- | --- | --- | --- |
| CC(C)(C)[Si](C)(C)OC[C@@H]1C[C@@H](O)[C@H](n2cnc3c(NC(=O)c4ccc(Cl)nc4)ncnc32)O1 [Compound 3c, 5′-O-(Tert-butyldimethylsilyl)-6-6-chloroformamide-3′-deoxya-denosine] | 45.8 ± 1.01 | 87.01 ± 0.04 | 82.6 ± 1.48 | – |
| CC[C@@]1(O)C(=O)OCc2c1cc1n(c2=O)Cc2cc3cc(O)ccc3nc2-1 [10-hydroxycamptothecin (HCPT), 10-hydroxycamptothecin, reference compound] | 7.56 ± 0.05 | 6.56 ± 0.45 | 7.96 ± 0.65 | – |
| CC(C)(C)[Si](C)(C)OC[C@@H]1C[C@@H](O)[C@H](n2cnc3c(NC(=O)c4cccs4)ncnc32)O1 [Compound 3a, 5′-O-(Tert-butyldimethylsilyl)-6-thiophenecarboxamide-3′-deoxya-denosine] | 114 ± 2.03 | 134 ± 5.12 | 102 ± 1.08 | – |
| O=C(Nc1ncnc2c1ncn2[C@@H]1O[C@H](CO)C[C@H]1O)c1ccc(Cl)nc1 [Compound 4c, 6-6-Chloronicotinamide-3′-deoxyadenosine] | 45.3 ± 0.58 | 48.4 ± 0.79 | 80.4 ± 1.05 | – |
| O=C(Nc1ncnc2c1ncn2[C@@H]1O[C@H](CO)C[C@H]1O)c1cccs1 [Compound 4a, 6-Thiophenecarboxamide-3′-deoxyadenosine] | 27.6 ± 0.52 | 68.8 ± 3.34 | 38.93 ± 0.06 | in vitro cytotoxicity against MCF-10A (MCF-10A cells): low toxicity; percentage of apoptotic cells (MCF7 cells [2]): 50.422 ± 1.862%; effect on MCF7 cell cycle (MCF7 cells [3]): cell cycle arrest at the G0/G1 phase; positive expression rate and cell membrane potential with increase in dose (MCF7 cells [4]): decrease gradually; expression of Bcl-2 protein (Bcl-2): down-regulate; expression of Caspase-9 (Caspase-9): up-regulate; expression of Caspase-3 (Caspase-3): up-regulate; expression of Bax (Bax): up-regulate; expression of p53 (p53): up-regulate |
| Nc1ncnc2c1ncn2[C@@H]1O[C@H](CO)C[C@H]1O [Cordycepin] | 46.9 ± 1.62 | 51.8 ± 1.36 | 51.3 ± 3.77 | IC50 (MCF7): 135 µM; IC50 (MDA-MB-453 cells): 70 µM |
| CC(C)(C)[Si](C)(C)OC[C@@H]1C[C@@H](O)[C@H](n2cnc3c(NC(=O)c4ccco4)ncnc32)O1 [Compound 3b, 5′-O-(Tert-butyldimethylsilyl)-6-furancarboxamide-3′-deoxyadenosine] | 98.03 ± 0.04 | 60.4 ± 1.15 | 41.7 ± 2.36 | – |
| O=C(Nc1ncnc2c1ncn2[C@@H]1O[C@H](CO)C[C@H]1O)c1ccco1 [Compound 4b, 6-Furancarboxamide-3′-deoxyadenosine] | 40.9 ± 1.67 | 33.37 ± 0.08 | 86.3 ± 2.35 | – |
